Data on 3 molecules can be found in US12509439B2, “Anti-malarial agents” (UNIVERSITY OF KENTUCKY RESEARCH FOUNDATION, priority 2020, dated 2025).

The target of one data set is T1, PfATP-4 (Plasmodium falciparum, UniProt A0A143ZZK9).
T1 construct: Saponin-isolated parasites at a density of 1.4-1.8×10^8 cells/mL; endogenous in cells
Kind of data set: Effect on cytosolic [Na+] in saponin-isolated Plasmodium falciparum (sodium flux assay, SBFI). Type of data set: cell-based. As to conditions: SBFI-loaded 3D7 parasites, compound at 1 μM. An excerpt: The ability of compounds of the invention to function as inhibitors of the Na+/H+-ATPase, which regulates parasite cytosolic sodium concentration has been tested in the following assay. Their effect on cytosolic sodium can be measured using a sodium flux assay (Biochemical characterization and chemical inhibition of PfATP4-associated Na+-ATPase activity in Plasmodium falciparum membranes. Rosling J. E. O. et al., 2018, J. Biol. Chem., 293: 13397). Saponin-isolated parasites at a density of 1.4-1.8×10^8 cells/mL, were suspended in bicarbonate-free RPMI1640 supplemented with 20 mM D-glucose, 0.2 mM hypoxanthine, 25 mM HEPES and 25 mg/L gentamycin sulfate (pH 7.10), then treated with sodium-binding benzofuran isophthalate acetoxymethyl ester ([…]) and Pluronic F-127 (0.01% w/v) for 20 min at 37° C. The dye-loaded cells were washed twice (12,000 g, 0.5 min) in bicarbonate-free RPMI then incubated for a further 20 min at 37° C. to allow for complete de-esterification of the dye before being resuspended at a final cell concentration of 1.5-2.5×10^7 cells/mL in standard saline. […] [Na+] was determined according to reference to a calibration curve of the 340/380 nm fluorescence ratio as described previously (In situ calibration and [H+] sensitivity of the fluorescent Na+ indicator SBFI. Diarra A. et al., 2001, Am. J. Physiol. Cell Physiol., 280: 1623).

A short description of data set [1]: Hepatocyte intrinsic clearance, cryopreserved human hepatocytes. Conditions: cryopreserved human hepatocytes in suspension (pooled), 60 min. The format is in vitro ADME. The method, then: The compounds of the invention (3 μM) were incubated in suspension with cryopreserved human (rat or mouse) hepatocytes pooled from multiple donors (>10) and samples taken at 6 time points over the course of a 60 min experiment and analysed by LC MS/MS. Williams E media supplemented with 2 mM L-glutamine and 25 mM HEPES and test compound (final substrate concentration 3 μM; final DMSO concentration 0.25%) were pre-incubated at 37° C. prior to the addition of a suspension of cryopreserved hepatocytes (final cell density 0.5×10^6 viable cells/mL in Williams E media supplemented with 2 mM L glutamine and 25 mM HEPES) to initiate the reaction. The final incubation volume is 500 μL. The reactions are stopped by transferring aliquots of incubate into acetonitrile at the appropriate time points, in a 1:2 ratio. The termination plates are centrifuged at 3,000 rpm for 20 min at 4° C. to precipitate the protein. Following protein precipitation, the sample supernatants were combined in cassettes of up to 4 compounds, internal standard was added and analysed by LC MS/MS. From a plot of ln peak area ratio (compound peak area/internal standard peak area) against time, the gradient of the line was determined. Subsequently, half-life (t½) and intrinsic clearance (CLint) were calculated using the equations below: Elimination rate constant (k)=(−gradient) Half-life (t½) (min)=0.693/k Intrinsic clearance (i.e. CLint) (μL/min/million cells)=V×0.693/t1/2
where V=Incubation volume (μL)/Number of cells
Verapamil and umbelliferone were included in the assay as controls and if the values for these compounds are not within the specified limits the results were rejected and the experiment repeated.

The test system of data set [2] is P. falciparum transgenic reporter strain NF54-HGL. Kind of data set: Standard membrane feeding assay (transmission blocking, oocysts in mosquito midgut). Conditions: Plasmodium falciparum, NF54, read-out: IC50, transmission of P. falciparum from infected blood into mosquitos (number of oocysts in the mosquito midgut). Type of data set: cell-based. The method, then:
Standard Membrane Feeding Assays (SMFA) were performed using P. falciparum transgenic reporter strain NF54-HGL that expresses a firefly luciferase gene from an hsp70 promoter (Vos et al., 2015, Scientific Reports, 5). Stage V gametocytes were pre-incubated with test compound prior to mosquito feeding. Test compound is dissolved in DMSO to achieve a stock solution of 10 mM that was serially diluted in DMSO to achieve concentrations […] above the final test concentration. Subsequently, 10 μl of diluted compound in DMSO is then added to 990 μl pre-warmed RPMI 1640 medium supplemented with 367 μM hypoxanthine, 25 mM HEPES and 25 mM NaHCO3 (‘incomplete medium’). 40 μl of this intermediate dilution is added to 360 μl of parasite culture and incubated for 48 hrs at 37° C. in Eppendorf tubes, resulting in 0.1% final DMSO concentration. Hereafter, 300 μl of the gametocyte culture/compound mix is added to 180 μl of packed red blood cells and centrifuged for 20 seconds at 10,000×g. […] Mosquitoes are processed for luminescence measurements to determine relative oocyst intensities as described previously (Stone et al., 2014, Journal of Infectious Diseases, 5, 16). Data is analyzed by fitting a four-parameter logistic regression model using maximum likelihood to find the best fit as described previously (Dechering et al., 2017, Scientific Reports, 7, 1) as shown under FIG. 5.

Data set [3] in a line: Pharmacokinetic profile in dog (IV). Conditions: in vivo; for clearance: read-out: Cl (dog); for half-life: read-out: t½ (dog) (converted).
For another data set, the system named is malaria infection. Conditions: human volunteers, single dose of 600 milligrams; cited from earlier work.
For data set [4] the following is noted: phase 1a clinical trials; cited from earlier work.

Each structure is given as a SMILES string. Where two headings read alike, the source gives them in different places. Some results are limits rather than exact numbers.

T1 sequence (A0A143ZZK9 whole entry): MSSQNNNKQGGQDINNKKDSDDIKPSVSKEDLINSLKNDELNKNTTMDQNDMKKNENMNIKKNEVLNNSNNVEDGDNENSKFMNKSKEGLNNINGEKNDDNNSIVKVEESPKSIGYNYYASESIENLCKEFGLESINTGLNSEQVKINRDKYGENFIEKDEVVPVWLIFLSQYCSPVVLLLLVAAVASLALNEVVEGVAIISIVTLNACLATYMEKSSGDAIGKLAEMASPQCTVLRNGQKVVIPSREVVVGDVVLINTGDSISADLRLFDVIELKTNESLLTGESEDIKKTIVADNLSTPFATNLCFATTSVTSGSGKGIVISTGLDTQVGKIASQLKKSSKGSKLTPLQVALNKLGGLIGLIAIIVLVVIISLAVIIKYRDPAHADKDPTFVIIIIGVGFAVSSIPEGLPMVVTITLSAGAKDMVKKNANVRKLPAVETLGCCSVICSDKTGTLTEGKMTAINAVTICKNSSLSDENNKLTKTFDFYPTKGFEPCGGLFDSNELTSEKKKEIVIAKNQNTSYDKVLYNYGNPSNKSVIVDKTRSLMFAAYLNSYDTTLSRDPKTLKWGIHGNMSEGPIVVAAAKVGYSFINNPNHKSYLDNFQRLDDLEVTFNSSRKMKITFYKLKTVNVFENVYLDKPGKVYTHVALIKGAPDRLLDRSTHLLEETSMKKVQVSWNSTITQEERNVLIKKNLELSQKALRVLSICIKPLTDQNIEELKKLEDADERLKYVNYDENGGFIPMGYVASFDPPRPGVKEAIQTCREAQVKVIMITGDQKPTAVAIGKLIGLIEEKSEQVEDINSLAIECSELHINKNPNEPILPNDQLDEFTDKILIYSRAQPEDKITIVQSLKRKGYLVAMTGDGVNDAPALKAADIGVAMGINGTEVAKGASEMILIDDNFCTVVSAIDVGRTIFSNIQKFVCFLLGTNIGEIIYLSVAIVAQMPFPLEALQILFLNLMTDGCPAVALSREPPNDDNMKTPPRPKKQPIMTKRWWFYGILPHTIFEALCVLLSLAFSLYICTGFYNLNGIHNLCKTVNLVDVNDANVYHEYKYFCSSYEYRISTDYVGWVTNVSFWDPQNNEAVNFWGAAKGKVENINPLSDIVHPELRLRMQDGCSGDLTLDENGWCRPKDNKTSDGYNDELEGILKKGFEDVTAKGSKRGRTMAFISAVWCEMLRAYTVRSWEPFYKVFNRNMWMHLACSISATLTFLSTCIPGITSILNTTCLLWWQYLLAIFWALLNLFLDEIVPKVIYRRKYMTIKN

Regarding `N#Cc1cc(NC(=O)[C@H]2c3ccccc3C(=O)N(CC(F)(F)F)[C@@H]2c2ccc(OC3CC3)nc2)ccc1F` (single isomer, unassigned) [(1a)], at PfATP-4, the “Effect on cytosolic [Na+]” value was “increase of cytosolic sodium concentration”. This molecule also registered a hepatocyte CLint at 3 μM in data set [1] of less than 3 µL/min/1e6 cells. In data set [2], the IC50 worked out at 0.323 µM. Also, in data set [3] (IV at 1 mg/kg), the clearance turned out to be 0.0156 L/h/kg and the half-life was 41 h.
On to `N#Cc1cc(NC(=O)[C@H]2c3ccccc3C(=O)N(CC(F)(F)F)[C@@H]2c2cnc(C(F)(F)F)nc2)ccc1F` [(9a), (3S,4S)—N-(3-cyano-4-fluorophenyl)-1-oxo-2-(2,2,2-trifluoroethyl)-3-(2-(trifluoromethyl)pyrimidin-5-yl)-1,2,3,4-tetrahydroisoquinoline-4-carboxamide], for which, at PfATP-4, the “Effect on cytosolic [Na+]” value is listed as “increase of cytosolic sodium concentration”. The molecule also registered an intrinsic metabolic clearance (hepatocyte CLint) at 3 μM in data set [1] of less than 3 µL/min/1e6 cells.
Turning to `N#Cc1cc(NC(=O)[C@H]2c3ccccc3C(=O)N(CC(F)(F)F)[C@@H]2c2cccnc2)ccc1F` [(+) SJ-733, 4-Isoquinolinecarboxamide, N-(3-cyano-4-fluorophenyl)-1,2,3,4-tetrahydro-1-oxo-3-(3-pyridinyl)-2-(2,2,2-trifluoroethyl)-, (3S,4S)-, reference compound], in the data set with malaria infection, the Parasitological cure result is on record as “parasitological cure was not achieved”. This molecule registered a hepatocyte CLint at 3 μM in data set [1] of 11.4 µL/min/1e6 cells. In addition, the “Metabolite formation in human pharmacokinetic studies” value in data set [4] is “significant formation of an inactive N-oxide metabolite”. Besides, in data set [3] (IV at dose 3 mg/kg), the clearance amounted to 0.18 L/h/kg and the half-life is 10 h.
